In US20200397894A1, “COMPOSITIONS AND METHODS FOR TREATING CANCER” (University of Virginia Patent Foundation, priority 2016, published 2020):

Experiments:
[1] = system: DM331 and SK-MEL-24 cells from PLX4720-resistant tumors; experiment: In vitro sensitivity of cells extracted ex vivo from PLX4720-resistant tumors; assay type: cell-based, human; details: DM331 and SK-MEL-24 cells extracted ex vivo
Protocol: Proliferation and viability of cultured cells was measured by CELLTITER96® Non-radioactive Cell Proliferation Assay (Promega Corporation; Madison, Wis., United States of America). Briefly, various wild type and mutant BRAF melanoma cells were seeded in 96 well plates and treated with pevonedistat, vemurafenib, or the combination pevonedistat and vemurafenib at various concentrations. Control cells were treated with DMSO. 96 hours following treatment, cells were stained with the dye solution according to the manufacturer's protocol. Absorbance was recorded at 570 nm and growth curves were established. […] Cells were counted every 24 hours using a COUNTESS™ Automated Cell Counter (INVITROGEN™, Carlsbad, Calif., United States of America), and harvested at the indicated times for PI staining and FACS analysis (cell cycle profile) or for immunoblotting.
The effects of pevonedistat, vemurafenib, and/or silencing of various cell cycle-associated proteins by siRNA on cell cycle distribution and rereplication were assessed by propidium iodide staining and flow cytometry of asynchronous melanoma cultures. […]

[2] = system: HNSCC cells; experiment: Colony formation and CYQUANT cell viability assays; assay type: cell-based; details: Homo sapiens
Protocol: HNSCC cells were transfected with si-RNA (48 hours prior to first count) or treated with pevonedistat (24 hours prior to first count). 8×10^5 cells were seeded in 60 mm plates and cell proliferation was determined by staining with trypan blue and counting by COUNTESS™ Automated Cell Counter (INVITROGEN™, Carlsbad, Calif., United States of America). Depending on the cell growth rate, cell counts were recorded either every 24 or 48 hours, and growth curves were established.
The effect of pevonedistat treatment or transient silencing of CDT2, geminin, or EMI1 on cell proliferation or on radiation sensitivity was tested using clonogenic survival assays. Cells were transfected with the appropriate si-RNA 48 hours prior to seeding. Cells were then counted using COUNTESS™ Automated Cell Counter (INVITROGEN™, Carlsbad, Calif., United States of America) and were seeded at 15,000 cells/plate in 60 mm dishes. Cells were irradiated 24 hours after seeding with various doses and were cultured for 7-10 days. […] QUANTITY ONE® software (BioRad Laboratories, Inc., Hercules, Calif., United States of America) was used to quantify the number of colonies and survival curves were established based on the linear quadratic model, using the formula S=e^−αD-βD2; where S represents the surviving fraction and D the dose of irradiation. […]

[3] = system: cullin neddylation in Cal27 or FaDu cells; experiment: Immunoblotting of cullin neddylation; assay type: cell-based, human; details: 50 nM pevonedistat, 24 or 48 hours
Protocol: HNSCC cells were lysed using radio-immunoprecipitation assay (RIPA) lysis buffer (50 mM Tris, pH 8.0; 150 mM NaCl, 1% NP-40; 0.5% sodium deoxycolate; 0.1% SDS; 1 mM Benzamidin-HCl; 0.5 μg/ml Leupeptin; 0.5 μg/ml Aprotinin; 1 μg/ml pepstatin; 20 mM NaF; 20 mM Na3VO4). Equal amounts of protein were electrophoretically separated in a polyacrylamide 8-12% gel (Bio-Rad Laboratories, Inc., Hercules, Calif., United States of America), trans-blotted to a nitrocellulose membrane, and incubated with primary antibodies for one hour at room temperature or overnight at 4° C. The immunoblot signals were detected by enhanced chemiluminescence (EMD Millipore Corporation, Billerica, Mass., United States of America).

For `NS(=O)(=O)OCC1CC(n2ccc3c(NC4CCc5ccccc54)ncnc32)CC1O` [pevonedistat, ((1S,2S,4R)-4-(4-((1S)-2,3-Dihydro-H-inden-1-ylamino)-7H-pyrrolo(2,3-d)pyrimidin-7-yl)-2-hydroxycyclopentyl)methyl sulphamate], the “sensitivity in vitro of cells from PLX4720-resistant tumors” value [1] was “sensitive to pevonedistat-induced rereplication and inhibition”, the IC50 [2] was roughly 0.05 µM and the cullin neddylation [3] was “inhibited cullin neddylation”.
